This passage reports T/C results from PubChem BioAssay AID248 (DTP/NCI, 2004).

Toxic doses and inconclusive results are not listed.

The subject of this assay is L1210 leukemia ip in BDF1 mice, survival T/C. The experiment in a line: NCI In Vivo Anticancer Drug Screen. Data for tumor model L1210 Leukemia (intraperitoneal) in B6D2F1 (BDF1) mice. The following applies: endpoint: mean survival time, higher = longer survival. A digest of the protocol:
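Ratio derived from survival: compound-dosed mice over vehicle-dosed mice, all bearing a transplantable tumor.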

Setting [1] is: dose: 100.0 mg/kg/injection, schedule: Q01DX001 (ip), vehicle: carboxymethylcellulose (CMC).
[2] abbreviates: dose: 200.0 mg/kg/injection, schedule: Q01DX001 (ip), vehicle: carboxymethylcellulose (CMC).
[3] abbreviates: dose: 400.0 mg/kg/injection, schedule: Q01DX001 (ip), vehicle: carboxymethylcellulose (CMC).
Setting [4] is: dose: 12.5 mg/kg/injection, schedule: Q01DX009 (ip), vehicle: saline.
[5] abbreviates: dose: 100.0 mg/kg/injection, schedule: Q01DX009 (ip), vehicle: saline with Tween-80.
The mark [6] stands for this setting: dose: 100.0 mg/kg/injection, schedule: Q04DX003 (ip), vehicle: saline with Tween-80.
The mark [7] stands for this setting: dose: 200.0 mg/kg/injection, schedule: Q01DX009 (ip), vehicle: saline with Tween-80.
The mark [8] stands for this setting: dose: 200.0 mg/kg/injection, schedule: Q04DX003 (ip), vehicle: saline with Tween-80.
[9] abbreviates: dose: 400.0 mg/kg/injection, schedule: Q04DX003 (ip), vehicle: saline with Tween-80.
Where [10] appears, read: dose: 100.0 mg/kg/injection, schedule: Q04DX003 (ip), vehicle: Klucel (hydroxypropylcellulose) (HPC).
[11] abbreviates: dose: 200.0 mg/kg/injection, schedule: Q04DX003 (ip), vehicle: Klucel (hydroxypropylcellulose) (HPC).
The mark [12] stands for this setting: dose: 400.0 mg/kg/injection, schedule: Q04DX003 (ip), vehicle: Klucel (hydroxypropylcellulose) (HPC).

For the molecule `O=C(Nc1ccc(C2=NCCCN2)cc1)c1ccc(C(=O)Nc2ccc(C3=NCCCN3)cc2)c(Cl)c1`, the T/C is, setting by setting: (dose: 0.04 mg/kg/injection, schedule: Q01DX015 (ip), vehicle: water) 98 % of control; (dose: 0.09 mg/kg/injection, schedule: Q01DX015 (ip), vehicle: water) 101 % of control; (dose: 0.18 mg/kg/injection, schedule: Q01DX015 (ip), vehicle: water) 95 % of control; (dose: 0.37 mg/kg/injection, schedule: Q01DX015 (ip), vehicle: water) 101 % of control; (dose: 0.75 mg/kg/injection, schedule: Q01DX015 (ip), vehicle: water) 107 % of control.

Consider `CC(=O)c1cccc(OC(=O)Oc2cccc(C(C)=O)c2)c1`, for which the T/C was 95 % of control under setting [1], 90 % of control under setting [2] and 95 % of control under setting [3].

`NC(N)=Nc1nc2ccccc2s1`: the T/C is, setting by setting: under setting [4], 94 % of control; (dose: 25.0 mg/kg/injection, schedule: Q01DX009 (ip), vehicle: saline) 100 % of control; (dose: 25.0 mg/kg/injection, schedule: Q04DX003 (ip), vehicle: Klucel (hydroxypropylcellulose) (HPC)) 103 % of control; (dose: 50.0 mg/kg/injection, schedule: Q01DX009 (ip), vehicle: saline) 96 % of control; (dose: 50.0 mg/kg/injection, schedule: Q04DX003 (ip), vehicle: Klucel (hydroxypropylcellulose) (HPC)) 100 % of control.

As for `c1ccc2c(-c3nc4ccccc4[nH]3)cccc2c1`, the T/C runs as follows: under setting [5], 91 % of control; under setting [6], 93 % of control; under setting [7], 96 % of control; under setting [8], 93 % of control; (dose: 400.0 mg/kg/injection, schedule: Q01DX009 (ip), vehicle: saline with Tween-80) 93 % of control; under setting [9], 102 % of control.

For `c1ccc([Si](c2ccccc2)(c2ccccc2)c2ccc3ccccc3c2)cc1`, the T/C by setting is: (dose: 25.6 mg/kg/injection, schedule: Q04DX002 (ip), vehicle: saline with Tween-80) 87 % of control; (dose: 64.0 mg/kg/injection, schedule: Q04DX002 (ip), vehicle: saline with Tween-80) 90 % of control; under setting [6], 90 % of control; (dose: 160.0 mg/kg/injection, schedule: Q04DX002 (ip), vehicle: saline with Tween-80) 90 % of control; under setting [8], 88 % of control; (dose: 400.0 mg/kg/injection, schedule: Q04DX002 (ip), vehicle: saline with Tween-80) 90 % of control. Besides, the T/C under setting [9] is 87 % of control.

Turning to `CCN(C(=S)Nc1cccc2ccccc12)c1ccccc1`, the T/C was 100 % of control (dose: 100.0 mg/kg/injection, schedule: Q01DX009 (ip), vehicle: Klucel (hydroxypropylcellulose) (HPC)); 96 % of control (dose: 200.0 mg/kg/injection, schedule: Q01DX009 (ip), vehicle: Klucel (hydroxypropylcellulose) (HPC)); 92 % of control (dose: 400.0 mg/kg/injection, schedule: Q01DX009 (ip), vehicle: Klucel (hydroxypropylcellulose) (HPC)).

Consider `Cc1ccc(C)c2c1C1=C(CCCC1)S2(=O)=O`, for which the T/C reads like this: (dose: 100.0 mg/kg/injection, schedule: Q01DX001 (ip), vehicle: saline) 96 % of control; (dose: 200.0 mg/kg/injection, schedule: Q01DX001 (ip), vehicle: saline) 102 % of control; (dose: 400.0 mg/kg/injection, schedule: Q01DX001 (ip), vehicle: saline) 104 % of control.

Consider `ClCCN(CCCl)c1ccc(C=Nc2ccc(-c3csc(Cc4ccccc4)n3)c(Cl)c2)cc1`, for which the T/C runs as follows: under setting [1], 93 % of control; under setting [2], 88 % of control; under setting [3], 87 % of control.

Consider `CN(C)C(=S)c1ccc(Cl)cc1`, for which the T/C is, setting by setting: (dose: 12.5 mg/kg/injection, schedule: Q01DX009 (ip), vehicle: Klucel (hydroxypropylcellulose) (HPC)) 98 % of control; (dose: 25.0 mg/kg/injection, schedule: Q01DX009 (ip), vehicle: Klucel (hydroxypropylcellulose) (HPC)) 98 % of control.

`Cc1ccc(C(=O)CCCc2ccccn2)cc1`: the T/C was 98 % of control (dose: 222.0 mg/kg/injection, schedule: Q01DX Z (ip), vehicle: methylcellulose (MC)); 100 % of control (dose: 333.0 mg/kg/injection, schedule: Q01DX Z (ip), vehicle: methylcellulose (MC)); 87 % of control (dose: 500.0 mg/kg/injection, schedule: Q01DX Z (ip), vehicle: methylcellulose (MC)).

With `CC(=O)Nc1ccc(C(=O)Nc2ccc(C3=NCCN3)cc2)cc1C(=O)Nc1ccc(C2=NCCN2)cc1`, the T/C is, setting by setting: (dose: 62.0 mg/kg/injection, schedule: Q01DX015 (ip), vehicle: carboxymethylcellulose (CMC)) 317 % of control; (dose: 250.0 mg/kg/injection, schedule: Q01DX015 (ip), vehicle: carboxymethylcellulose (CMC)) 158 % of control.

For the molecule `C[CH2][Sn]([CH2]C)([O]S(C)(=O)=O)[O]S(C)(=O)=O`, the T/C by setting is: (dose: 0.78 mg/kg/injection, schedule: Q01DX009 (ip), vehicle: saline) 95 % of control; (dose: 1.56 mg/kg/injection, schedule: Q01DX009 (ip), vehicle: saline) 98 % of control; (dose: 3.12 mg/kg/injection, schedule: Q01DX009 (ip), vehicle: saline) 106 % of control; (dose: 6.25 mg/kg/injection, schedule: Q01DX009 (ip), vehicle: saline) 116 % of control; under setting [4], 102 % of control.

In the case of `c1ccc2cc(SSc3ccc4ccccc4c3)ccc2c1`, the T/C was 95 % of control under setting [10], 89 % of control under setting [11] and 86 % of control under setting [12].

On to `C#CCn1c(=O)c2c(ncn2C)n(C)c1=O`, for which, under “dose: 6.25 mg/kg/injection, schedule: Q04DX003 (ip), vehicle: saline”, the T/C was 100 % of control.

As for `CCOC(=O)CCC(C(=O)OCC)c1nc2ccccc2[nH]c1=O` (centres undefined), the T/C is 108 % of control under setting [10], 108 % of control under setting [11] and 96 % of control under setting [12].

In the case of `CN(C)CCCN=NNc1nc[nH]c1C(N)=O`, the T/C is 95 % of control (dose: 100.0 mg/kg/injection, schedule: Q01DX001 (ip), vehicle: Klucel (hydroxypropylcellulose) (HPC)); 108 % of control under setting [10]; 91 % of control (dose: 200.0 mg/kg/injection, schedule: Q01DX001 (ip), vehicle: Klucel (hydroxypropylcellulose) (HPC)); 92 % of control under setting [11]; 95 % of control (dose: 400.0 mg/kg/injection, schedule: Q01DX001 (ip), vehicle: Klucel (hydroxypropylcellulose) (HPC)).

In the case of `Cc1csc(/N=C/c2ccc([N+](=O)[O-])o2)n1`, the T/C by setting is: (dose: 50.0 mg/kg/injection, schedule: Q01DX009 (ip), vehicle: saline with Tween-80) 100 % of control; under setting [5], 105 % of control; under setting [6], 103 % of control; under setting [7], 101 % of control; under setting [8], 97 % of control.

Regarding `CCOC(=O)N1CCC(=C(C#N)c2ccccc2)CC1`, the T/C runs as follows: under setting [10], 92 % of control; under setting [11], 92 % of control.

For `COCCNC(=O)NS(=O)(=O)c1ccc(C)cc1`, the T/C by setting is: under setting [6], 98 % of control; under setting [8], 98 % of control; under setting [9], 96 % of control.
